Reference: the NIST ThermoML archive (doi:10.1021/je700521t)
Numbers after ± are expanded uncertainties.

How the values were obtained:
[1] = 101.33 kPa, Liquid; for viscosity: Falling or rolling sphere viscometry
[2] = refractive index (Na D-line) (dimensionless); details: 101.33 kPa, Liquid

CCCCn1cc[n+](C)c1.[O-][Cl+3]([O-])([O-])[O-] [1-butyl-3-methylimidazolium perchlorate]
Details | refractive index, [2] | viscosity, [1] [mPa·s]
283.15 K | 1.4763 ± 0.0012 | 466.36 ± 37
288.15 K | 1.4751 ± 0.0012 | 330.8 ± 23
293.15 K | 1.474 ± 0.0012 | 241.56 ± 14
298.15 K | 1.4725 ± 0.0012 | 180.26 ± 9.5
303.15 K | 1.4712 ± 0.0012 | 137.85 ± 7
308.15 K | 1.4696 ± 0.0012 | 107.28 ± 5.5
313.15 K | 1.4685 ± 0.0012 | 85.75 ± 4.8
318.15 K | 1.4667 ± 0.0012 | 69.52 ± 4.5
323.15 K | 1.4655 ± 0.0012 | 57.22 ± 4.3
328.15 K | 1.4642 ± 0.0012 | 47.78 ± 4.2
333.15 K | 1.4627 ± 0.0012 | 39.9 ± 4.1
338.15 K | 1.4615 ± 0.0012 | 34.14 ± 4.1
343.15 K | 1.4602 ± 0.0012 | 29.49 ± 4.1
348.15 K | 1.459 ± 0.0012 | 25.74 ± 4.1
353.15 K | 1.4577 ± 0.0012 | 22.64 ± 4

[1], Vibrating tube method
Details | mass density [kg/m3]
283.15 K | 1263.5 ± 8.7
288.15 K | 1259.9 ± 8.6
293.15 K | 1256.2 ± 8.6
298.15 K | 1252.7 ± 8.5
303.15 K | 1249.2 ± 8.5
308.15 K | 1245.7 ± 8.5
313.15 K | 1242.2 ± 8.4
318.15 K | 1238.8 ± 8.4
323.15 K | 1235.3 ± 8.3
328.15 K | 1231.9 ± 8.3
333.15 K | 1228.4 ± 8.2
338.15 K | 1225 ± 8.2
343.15 K | 1221.6 ± 8.1
348.15 K | 1218.2 ± 8.1
353.15 K | 1214.8 ± 8

CCCCCCCC[n+]1ccn(C)c1.F[B-](F)(F)F [1-methyl-3-octylimidazolium tetrafluoroborate]
Details | mass density, [1] [kg/m3] | refractive index, [2] | viscosity, [1] [mPa·s]
283.15 K | 1124.9 ± 1.7 | 1.4363 ± 0.0008 | 1037 ± 110
288.15 K | 1121.4 ± 1.7 | 1.435 ± 0.0008 | 718.75 ± 66
293.15 K | 1117.9 ± 1.6 | 1.4336 ± 0.0008 | 462.9 ± 36
298.15 K | 1114.4 ± 1.6 | 1.4322 ± 0.0008 | 334.17 ± 22
303.15 K | 1110.9 ± 1.6 | 1.431 ± 0.0008 | 246.18 ± 14
308.15 K | 1107.5 ± 1.6 | 1.4288 ± 0.0008 | 191.95 ± 9.3
313.15 K | 1104.1 ± 1.6 | 1.4271 ± 0.0008 | 147.92 ± 6.7
318.15 K | 1100.7 ± 1.5 | 1.426 ± 0.0008 | 116.38 ± 5.3
323.15 K | 1097.3 ± 1.5 | 1.425 ± 0.0008 | 91.95 ± 4.5
328.15 K | 1093.9 ± 1.5 | 1.4235 ± 0.0008 | 74.79 ± 4.2
333.15 K | 1090.6 ± 1.5 | 1.4222 ± 0.0008 | 60.95 ± 4.1
338.15 K | 1087.2 ± 1.5 | 1.421 ± 0.0008 | 50.88 ± 4
343.15 K | 1083.9 ± 1.5 | 1.4195 ± 0.0008 | 42.06 ± 4
348.15 K | 1080.5 ± 1.5 | 1.418 ± 0.0008 | 35.78 ± 4
353.15 K | 1077.2 ± 1.4 | 1.4167 ± 0.0008 | 30.11 ± 4
358.15 K | 1073.8 ± 1.4 | 1.4155 ± 0.0008 | 25.87 ± 4
363.15 K | 1070.5 ± 1.4 | 1.4142 ± 0.0008 | 21.57 ± 4
